Laboratory results as given in PMC2248166, “Quantitative peptide binding motifs for 19 human and mouse MHC class I molecules derived using positional scanning combinatorial peptide libraries” (Immunome Research, 2008).

Legend:
HLA B*5802 = HLA B*5802 (Homo sapiens, UniProt P01889, A329T/C349S/D201E/D98Y/E176V/E187L/E204Q/E69T/G107R/I218V/I90N/K202T/L105A/N104I/N87E/Q89R/Q94S/R106L/R155S/R180L/R86G/S101N/S121W/S35A/S48A/V127L/V306I/V36M/Y140S/Y91M); format: binding
HLA B*3501 = HLA B*3501 (Homo sapiens, UniProt P01889, A329T/A93T/A95T/C349S/D201E/D98Y/E176V/E187L/E204Q/E69T/I218V/K202T/L119I/Q94N/R155S/R180L/S121R/S35A/S48A/T118I/V127L/V306I/V36M/Y140S/Y91F); format: binding
HLA B*0801 = HLA B*0801 (Homo sapiens, UniProt P01889, A93T/A95T/D138N/E176V/E187T/K202T/Q94N/R180D/S35A/V36M/Y33D/Y91F); assay: biochemical; format: binding
HLA A*3001 = HLA A*3001 (Homo sapiens, UniProt P04439, D140H/D185E/E176W/F33S/G80R/H175R/K168Q/R138E/R41S); assay: biochemical; format: binding
HLA B*0702 = HLA B*0702 (Homo sapiens, UniProt P01889); format: binding; details: positional scanning combinatorial 9-mer library; normalized to 1.0 for the best residue at each position
HLA B*5401 = HLA B*5401 (Homo sapiens, UniProt P01889, A329T/C349S/D138N/D201E/E176V/E187T/E204Q/E69G/I76V/K202T/L119W/R155S/R180L/S121T/S35A/S48A/V127L/V306I/V36M/Y140L); format: binding
H-2 K^k = H-2 K^k (Mus musculus, UniProt P04223); format: binding
HLA A*6802 = HLA A*6802 (Homo sapiens, UniProt P04439, A269V/D140Y/D185E/E176V/E277Q/E87N/F33Y/G231S/I121R/I166T/I218V/L180W/L300P/L318F/N151K/P208A/P217A/Q86R/R138H/R169H/S129P/T345S/V36M); format: binding
HLA B*1503 = HLA B*1503 (Homo sapiens, UniProt P01889, A329T/A93T/A95T/C349S/D201E/D98Y/E187L/E204Q/K202T/N87E/Q94N/R155S/R180L/S121R/S35A/V306I/V36M/Y140S/Y91S); assay: biochemical; format: binding
HLA B*5801 = HLA B*5801 (Homo sapiens, UniProt P01889, A329T/C349S/D201E/D98Y/E176V/E187L/E204Q/E69T/G107R/I218V/I90N/K202T/L105A/L119I/N104I/N87E/Q89R/Q94S/R106L/R155S/R180L/R86G/S101N/S121R/S35A/S48A/T118I/V127L/V306I/V36M/Y140S/Y91M); format: binding
HLA B*2705 = HLA B*2705 (Homo sapiens, UniProt P01889, D138H/D201E/E176V/E204Q/G107R/H137Y/K202T/N104T/N87E/Q56L/Q94K/R106L/R155S/R180L/S101D/S121N/S48T/Y140D/Y33H/Y91C); format: binding; details: positional scanning combinatorial 9-mer library; normalized to 1.0 for the best residue at each position
HLA B*5301 = HLA B*5301 (Homo sapiens, UniProt P01889, A329T/A93T/A95T/C349S/D201E/D98Y/E176V/E187L/E204Q/E69T/G107R/I218V/K202T/L105A/L119I/N104I/Q94N/R106L/R155S/R180L/S101N/S121R/S35A/S48A/T118I/V127L/V306I/V36M/Y140S/Y91F); format: binding
HLA A*0201 = HLA A*0201 (Homo sapiens, UniProt P04439, D140Y/D185E/D98H/E176V/E277Q/G131W/G231S/I119V/I121R/I166T/I218V/L300P/L318F/N151K/N90K/P208A/P217A/Q86G/Q94H/R138H/R169H/T345S); details: positional scanning combinatorial 9-mer library; normalized to 1.0 for the best residue at each position
HLA A*3201 = HLA A*3201 (Homo sapiens, UniProt P04439, A270S/D101S/D185E/E176V/E277Q/F133L/G103R/G107R/G231S/H175R/I121M/I218V/I322F/K168Q/L105A/L300P/L318F/M331R/P208A/P217A/Q94H/R106L/R138Q/S129P/T104I/T323A/T345S/V100E/V321M/V358M); assay: biochemical; format: binding
HLA B*1501 = HLA B*1501 (Homo sapiens, UniProt P01889, A329T/A93T/A95T/C349S/D201E/D98Y/E187L/E204Q/E69M/E70A/K202T/N87E/Q94N/R155S/R180W/S121R/S35A/S48A/V306I/V36M/Y140S/Y91S); assay: biochemical; format: binding
H-2 D^b = H-2 D^b (Mus musculus, UniProt P01899); format: binding
H-2 D^d = H-2 D^d (Mus musculus, UniProt P01900); format: binding
HLA B*5101 = HLA B*5101 (Homo sapiens, UniProt P01889, A329T/A93T/A95T/C349S/D138N/D201E/D98Y/E187L/E204Q/E69T/G107R/I218V/K202T/L105A/L119W/N104I/Q94N/R106L/R155S/R180L/S101N/S121T/S35A/S48A/V306I/V36M/Y195H/Y91F); format: binding

H-2 D^b, sequence (P01887 21-119): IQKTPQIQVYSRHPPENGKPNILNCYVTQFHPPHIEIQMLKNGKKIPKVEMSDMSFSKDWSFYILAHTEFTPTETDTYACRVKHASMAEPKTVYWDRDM
H-2 D^b, sequence (P01899 25-362): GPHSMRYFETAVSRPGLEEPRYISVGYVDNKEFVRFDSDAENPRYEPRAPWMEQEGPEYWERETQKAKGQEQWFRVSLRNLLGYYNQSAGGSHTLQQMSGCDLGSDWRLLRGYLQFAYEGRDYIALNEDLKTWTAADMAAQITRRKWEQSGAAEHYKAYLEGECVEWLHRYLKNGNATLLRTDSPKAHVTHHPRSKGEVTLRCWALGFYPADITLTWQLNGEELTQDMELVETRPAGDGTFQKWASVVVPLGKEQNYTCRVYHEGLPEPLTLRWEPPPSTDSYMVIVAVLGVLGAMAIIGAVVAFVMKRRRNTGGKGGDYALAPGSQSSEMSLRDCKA
H-2 K^k, sequence (P01887 21-119): as the sequence (P01887 21-119) above
H-2 K^k, sequence (P04223 22-369): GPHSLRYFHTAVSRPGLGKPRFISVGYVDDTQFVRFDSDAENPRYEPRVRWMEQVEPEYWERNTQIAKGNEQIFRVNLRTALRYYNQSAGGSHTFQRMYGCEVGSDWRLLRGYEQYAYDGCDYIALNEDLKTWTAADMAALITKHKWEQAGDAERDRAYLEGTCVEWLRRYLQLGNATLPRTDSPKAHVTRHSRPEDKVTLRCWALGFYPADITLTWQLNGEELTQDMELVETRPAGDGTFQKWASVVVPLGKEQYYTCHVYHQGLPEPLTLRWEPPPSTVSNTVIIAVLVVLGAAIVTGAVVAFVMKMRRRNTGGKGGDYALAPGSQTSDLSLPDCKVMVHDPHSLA
H-2 D^d, sequence (P01900 whole entry, looked up): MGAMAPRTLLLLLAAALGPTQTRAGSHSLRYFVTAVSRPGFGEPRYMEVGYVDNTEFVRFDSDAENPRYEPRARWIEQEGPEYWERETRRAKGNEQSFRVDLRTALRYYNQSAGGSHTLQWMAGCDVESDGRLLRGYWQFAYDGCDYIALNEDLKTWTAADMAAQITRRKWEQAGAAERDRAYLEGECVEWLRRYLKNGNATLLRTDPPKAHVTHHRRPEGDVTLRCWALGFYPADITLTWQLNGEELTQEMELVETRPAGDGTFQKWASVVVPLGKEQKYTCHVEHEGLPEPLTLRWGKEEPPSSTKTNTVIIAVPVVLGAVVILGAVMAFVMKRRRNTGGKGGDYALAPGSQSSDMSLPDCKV

Row | Sequence | Normalized average relative binding affinity (ARB), HLA B*5802 (HLA B*5802) | Normalized average relative binding affinity (ARB), HLA B*3501 (HLA B*3501) | Normalized average relative binding affinity (ARB), HLA B*0801 (HLA B*0801) | Normalized average relative binding affinity (ARB), HLA A*3001 (HLA A*3001) | Normalized average relative binding affinity (ARB), HLA B*0702 (HLA B*0702) | Normalized average relative binding affinity (ARB), HLA B*5401 (HLA B*5401) | Normalized average relative binding affinity (ARB), H-2 Kk (H-2 K^k) | Normalized average relative binding affinity (ARB), HLA A*6802 (HLA A*6802) | Normalized average relative binding affinity (ARB), HLA B*1503 (HLA B*1503) | Normalized average relative binding affinity (ARB), HLA B*5801 (HLA B*5801) | Normalized average relative binding affinity (ARB), HLA B*2705 (HLA B*2705) | Normalized average relative binding affinity (ARB), HLA B*5301 (HLA B*5301) | Normalized average relative binding affinity (ARB), HLA A*0201 (HLA A*0201) | Normalized average relative binding affinity (ARB), HLA A*3201 (HLA A*3201) | Normalized average relative binding affinity (ARB), HLA B*1501 (HLA B*1501) | Normalized average relative binding affinity (ARB), H-2 Db (H-2 D^b) | Normalized average relative binding affinity (ARB), H-2 Dd (H-2 D^d) | Normalized average relative binding affinity (ARB), HLA B*5101 (HLA B*5101)
1 | XVXXXXXXX [3064.0038] | 0.12 | 0.062 | 0.17 | 1.0 | 0.086 | 0.024 | 0.0062 | 1.0 | 0.017 | 0.14 | 0.0016 | 0.10 | 0.098 | 0.23 | 0.39 | 0.20 | 0.016 | 0.10
2 | XWXXXXXXX [3064.0039] | 0.098 | 0.015 | 0.024 | 0.26 | 0.0052 | 0.0040 | 0.0069 | 0.022 | 0.0038 | 0.0033 | 0.0022 | 0.0054 | 0.0024 | 0.034 | 0.027 | 0.10 | 0.061 | 0.050
3 | XXAXXXXXX [3064.0041] | 0.047 | 0.19 | 0.12 | 0.0077 | 0.0097 | 0.00077 | 0.0061 | 0.0051 | 0.29 | 0.32 | 0.21 | 0.0065 | 0.43 | 0.24 | 0.23 | 0.022 | 0.0028 | 0.47
